Reference: patent US20040229268A1, “Method and kit for identifying antibiotic-resistant microorganisms” (priority 2003, published 2004)

Test system: VanA and VanB gene sequences
Test: HPA for detecting VanA and VanB gene sequences (Example 12)
Format: binding, E. faecalis, E. faecium
Procedure: Double-stranded plasmids harboring inserts of either VanA or VanB gene sequences were prepared for use as control templates. More specifically, VanA gene sequences were amplified in a PCR protocol using primers having the sequences of VanA(+)464 Kpn and VanA(−)1325Bam. Similarly, VanB gene sequences were amplified using primers having the sequences of VanB(+)084 Kpn and VanB(−)1006Bam. Genomic DNA samples from bacteria known to have VanA or VanB genotypes were used as templates in the amplification reactions. Blunt-ended amplification products containing VanA gene sequences were ligated into a pPCR-[…] SK(+) (Stratagene; La Jolla, Calif.) plasmid cloning vector, and propagated in E. coli host bacteria using procedures that will be familiar to those having an ordinary level of skill in the art. Double-stranded amplification products containing VanB gene sequences were first digested with KpnI and BamHI, and then ligated into a similarly cleaved pBLUESCRIPT-II KS(+) (Stratagene; La Jolla, Calif.) plasmid cloning vector. Isolated double-stranded plasmid DNA served as controls in hybridization assays.
2′-deoxy probes having the sequences presented under Example 10 were prepared by standard phosphoramidite synthesis. AE labeling of the probes also was performed using standard procedures, as described herein and as will be familiar to those having an ordinary level of skill in the art. Samples of four different cultured VRE bacteria described under the previous Example were lysed essentially as described above. RNA in the samples was hydrolyzed and DNA denatured by incubation of the lysate with hydroxide at elevated temperature. In parallel procedures, samples of two plasmid clones harboring either the VanA or VanB inserts (as described under the previous Example) were also treated to denature DNA. All samples were neutralized by addition of a buffered HCl reagent. AE-labeled probes were added to each of the samples and then hybridized at 55-60° C. for 45 minutes to permit formation of complementary probe:target duplexes. The pan-bacterial probe (Probe Reagent 1, GEN-PROBE® MTC-NI Kit, catalog no. 4573) described under Example 2 was used as a positive control to confirm the presence of bacterial nucleic acid targets. Trials containing labeled probe in the absence of an added target (i.e., “probe alone”) served as negative controls. The AE label joined to probe molecules that remained single-stranded following the hybridization procedure were destroyed by treatment under mild alkaline conditions, and the extent of specific hybrid formation quantified by luminometry as described in the foregoing Examples.

[1] = ATCC 51299 (VanB), E. faecalis lysate
[2] = ATCC 51575 (VanB), E. faecalis lysate
[3] = ATCC 700221 (VanA), E. faecium lysate
[4] = ATCC 700802 (VanB), E. faecalis lysate
[5] = samples containing nucleic acids from VanB-positive VRE bacteria
[6] = samples containing nucleic acids from the single VanA-positive bacterial isolate

| Sequence | Probe Hybridization (in RLU) [1] | Probe Hybridization (in RLU) [2] | Probe Hybridization (in RLU) [3] | Probe Hybridization (in RLU) [4] | Probe Hybridization (in RLU) (Probe Alone (no added target)) | Probe Hybridization (in RLU) (VanA clone (plasmid)) | Probe Hybridization (in RLU) (VanB clone (plasmid)) | hybridization signal (in words) [5] | background-corrected hybridization signal relative to negative control (fold greater than background) (VanA-positive bacterial sample ATCC # 700221) | background-corrected hybridization signal relative to negative control (fold greater than background) (average over VanB-positive bacterial samples ATCC Nos. 51575, 700802 and 51299) | hybridization signal (in words) [6] |
| --- | --- | --- | --- | --- | --- | --- | --- | --- | --- | --- | --- |
| CCGCAGCTTGCATGGACAAATCACTGGC (DNA, backbone and methylation of C not given here; further chemistry not fully specified; listed as Enterococcus faecalis) [VanB(+)084] | 7863 RLU | 6003 RLU | 768 RLU | 10119 RLU | 371 RLU | 716 RLU | 54711 RLU | very strong signals | – | – | – |
| CCAAGCACCCGATATACTTTCTTTGCC (DNA, backbone and methylation of C not given here; further chemistry not fully specified; listed as Enterococcus faecalis) [VanB(−)1006] | 8335 RLU | 6300 RLU | 1485 RLU | 9116 RLU | 586 RLU | 1708 RLU | 27493 RLU | very strong signals | – | – | – |
| GCTGAGCTTTGAATATCGCAGCC (AE label linker 8/9, chemistry not fully specified; listed as Enterococcus faecium) [VanA(−)792] | 2983 RLU | 2254 RLU | 10627 RLU | 3653 RLU | 256 RLU | 52729 RLU | 505 RLU | – | about 40 fold | about 10.5 fold | very strong hybridization signals |
| CGTTCAGTACAATGCGGCCG (DNA, backbone and methylation of C not given here; further chemistry not fully specified; listed as Enterococcus faecium) [VanA(−)1325] | 1182 RLU | 1761 RLU | 23523 RLU | 931 RLU | 368 RLU | 24378 RLU | 942 RLU | – | – | – | very strong hybridization signals |
| GGGTTGCTCAGAGGAGCATGACGTATCGG (DNA, backbone and methylation of C not given here; further chemistry not fully specified; listed as Enterococcus faecium) [VanA(+)464] | 765 RLU | 696 RLU | 10910 RLU | 757 RLU | 374 RLU | 37434 RLU | 817 RLU | – | – | – | very strong hybridization signals |
| CGCATCCATCAGGAAAACGAGCCGG (DNA, backbone and methylation of C not given here; acridinium ester (AE) label attached via linker; listed as Enterococcus faecalis) [VanB(+)428] | 8113 RLU | 6307 RLU | 683 RLU | 9657 RLU | 370 RLU | 684 RLU | 49242 RLU | very strong signals | – | – | – |
